Holding throughout (format): cell-based
For one experiment, the target named is T1, human TLR8 (Homo sapiens, UniProt Q9NR97).
T1 construct: host or cells: HEK-Blue cells (HEK293-derived reporter line)
T1 sequence (Q9NR97 27-1041): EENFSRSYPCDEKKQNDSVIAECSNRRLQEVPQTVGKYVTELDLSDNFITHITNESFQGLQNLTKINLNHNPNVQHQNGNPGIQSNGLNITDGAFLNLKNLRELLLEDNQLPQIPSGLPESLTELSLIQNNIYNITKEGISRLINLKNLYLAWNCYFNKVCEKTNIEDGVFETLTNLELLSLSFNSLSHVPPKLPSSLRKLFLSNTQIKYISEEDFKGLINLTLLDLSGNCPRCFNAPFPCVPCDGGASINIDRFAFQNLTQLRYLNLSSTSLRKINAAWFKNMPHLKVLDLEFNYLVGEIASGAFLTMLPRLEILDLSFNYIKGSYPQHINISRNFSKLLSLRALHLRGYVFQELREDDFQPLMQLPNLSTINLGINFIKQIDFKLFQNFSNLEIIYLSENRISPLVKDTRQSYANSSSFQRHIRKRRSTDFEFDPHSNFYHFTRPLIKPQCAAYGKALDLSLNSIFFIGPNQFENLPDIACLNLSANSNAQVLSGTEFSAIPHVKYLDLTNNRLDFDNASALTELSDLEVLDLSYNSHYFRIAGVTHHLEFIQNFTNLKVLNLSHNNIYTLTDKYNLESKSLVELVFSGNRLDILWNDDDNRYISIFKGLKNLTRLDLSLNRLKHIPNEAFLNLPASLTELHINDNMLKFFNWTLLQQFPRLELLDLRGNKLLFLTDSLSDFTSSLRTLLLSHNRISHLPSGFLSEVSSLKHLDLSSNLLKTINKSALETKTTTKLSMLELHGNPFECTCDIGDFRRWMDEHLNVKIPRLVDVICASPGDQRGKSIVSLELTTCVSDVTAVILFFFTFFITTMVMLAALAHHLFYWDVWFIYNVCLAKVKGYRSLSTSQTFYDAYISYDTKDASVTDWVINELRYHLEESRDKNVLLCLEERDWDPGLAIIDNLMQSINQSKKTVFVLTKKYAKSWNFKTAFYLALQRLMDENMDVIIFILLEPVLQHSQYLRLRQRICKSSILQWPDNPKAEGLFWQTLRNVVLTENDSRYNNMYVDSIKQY
The experiment can be described thus: TLR8 inhibition reporter assay (HEK-Blue cells, secreted embryonic alkaline phosphatase reporter). The conditions noted are these: HEK-Blue cells overexpressing human TLR8, stimulated with R848 15.9 μM; read-out: TLR 8 IC50. The method in brief: (§1)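 Agonist-driven SEAP output was measured in HEK-Blue reporter cells carrying human TLR7 (gardiquimod 7.5 μM), TLR8 (R848 15.9 μM) or TLR9 (ODN2006 5 nM). Compounds at 0.05 nM–50 μM final were added 30 min before stimulation at room temperature. After 22 h at 37 °C, percent inhibition was taken against agonist/DMSO wells and a reference inhibitor.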

The target of the next experiment is T2, human TLR7 (Homo sapiens, UniProt Q9NYK1).
T2 construct: host or cells: HEK-Blue cells (HEK293-derived reporter line)
T2 sequence (Q9NYK1 27-1049): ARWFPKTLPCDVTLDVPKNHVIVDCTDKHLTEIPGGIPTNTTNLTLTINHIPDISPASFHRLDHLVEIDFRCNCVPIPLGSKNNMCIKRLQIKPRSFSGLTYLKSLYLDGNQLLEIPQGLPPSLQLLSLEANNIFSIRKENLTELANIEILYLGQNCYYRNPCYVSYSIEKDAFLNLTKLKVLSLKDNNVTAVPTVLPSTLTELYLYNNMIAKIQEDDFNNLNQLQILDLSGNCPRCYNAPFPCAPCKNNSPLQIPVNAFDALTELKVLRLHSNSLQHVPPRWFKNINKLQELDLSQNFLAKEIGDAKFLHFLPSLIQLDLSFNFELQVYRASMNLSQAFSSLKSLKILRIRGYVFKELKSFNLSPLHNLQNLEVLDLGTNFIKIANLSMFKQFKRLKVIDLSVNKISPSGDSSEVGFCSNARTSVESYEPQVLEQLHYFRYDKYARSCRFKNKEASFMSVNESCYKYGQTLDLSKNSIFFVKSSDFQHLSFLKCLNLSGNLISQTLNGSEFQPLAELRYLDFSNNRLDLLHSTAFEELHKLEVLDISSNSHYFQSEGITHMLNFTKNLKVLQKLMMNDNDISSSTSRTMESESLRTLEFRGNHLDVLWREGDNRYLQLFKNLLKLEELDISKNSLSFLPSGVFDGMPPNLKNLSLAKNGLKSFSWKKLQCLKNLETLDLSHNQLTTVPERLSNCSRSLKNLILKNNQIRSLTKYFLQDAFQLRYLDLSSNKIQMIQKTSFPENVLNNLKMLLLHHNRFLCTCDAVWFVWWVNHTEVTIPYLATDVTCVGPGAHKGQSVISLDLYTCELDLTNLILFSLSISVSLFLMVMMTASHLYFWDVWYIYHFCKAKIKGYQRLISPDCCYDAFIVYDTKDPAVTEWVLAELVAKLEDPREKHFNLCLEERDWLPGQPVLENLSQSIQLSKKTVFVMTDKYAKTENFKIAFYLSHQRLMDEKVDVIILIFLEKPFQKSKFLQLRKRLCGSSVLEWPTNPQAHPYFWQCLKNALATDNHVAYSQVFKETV
The experiment can be described thus: TLR7 inhibition reporter assay (HEK-Blue cells, secreted embryonic alkaline phosphatase reporter). The settings on record: HEK-Blue cells overexpressing human TLR7, stimulated with gardiquimod 7.5 μM; read-out: TLR 7 IC50. In outline:
as §1

In another experiment the target is T3, human TLR9 (Homo sapiens, UniProt Q9NR96).
T3 construct: host or cells: HEK-Blue cells (HEK293-derived reporter line)
T3 sequence (Q9NR96 26-1032): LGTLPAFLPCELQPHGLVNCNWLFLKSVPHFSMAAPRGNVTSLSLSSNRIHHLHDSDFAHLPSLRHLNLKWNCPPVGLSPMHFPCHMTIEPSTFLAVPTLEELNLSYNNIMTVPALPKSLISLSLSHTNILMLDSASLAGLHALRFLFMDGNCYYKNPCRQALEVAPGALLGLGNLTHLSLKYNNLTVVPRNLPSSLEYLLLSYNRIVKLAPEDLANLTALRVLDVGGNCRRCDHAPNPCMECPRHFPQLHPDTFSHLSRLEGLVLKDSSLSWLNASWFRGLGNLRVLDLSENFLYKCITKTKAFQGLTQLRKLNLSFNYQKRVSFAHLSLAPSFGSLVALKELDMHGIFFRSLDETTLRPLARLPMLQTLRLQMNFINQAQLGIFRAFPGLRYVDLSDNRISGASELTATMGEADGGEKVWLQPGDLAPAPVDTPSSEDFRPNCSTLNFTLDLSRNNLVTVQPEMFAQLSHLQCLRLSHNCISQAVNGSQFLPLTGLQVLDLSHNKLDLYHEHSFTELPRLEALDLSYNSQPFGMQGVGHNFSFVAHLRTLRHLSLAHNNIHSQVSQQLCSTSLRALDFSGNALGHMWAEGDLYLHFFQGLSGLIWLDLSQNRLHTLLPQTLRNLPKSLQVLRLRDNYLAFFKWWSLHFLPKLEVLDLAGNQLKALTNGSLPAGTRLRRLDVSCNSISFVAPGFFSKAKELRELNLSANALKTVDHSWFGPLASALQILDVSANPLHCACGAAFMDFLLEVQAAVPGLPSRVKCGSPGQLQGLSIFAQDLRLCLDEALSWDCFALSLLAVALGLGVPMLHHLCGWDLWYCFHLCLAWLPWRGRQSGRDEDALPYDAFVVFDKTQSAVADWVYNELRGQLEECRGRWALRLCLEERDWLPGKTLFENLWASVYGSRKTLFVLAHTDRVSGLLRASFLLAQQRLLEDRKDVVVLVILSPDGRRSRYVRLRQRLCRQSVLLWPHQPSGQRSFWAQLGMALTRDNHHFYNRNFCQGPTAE
In words: TLR9 inhibition reporter assay (HEK-Blue cells, secreted embryonic alkaline phosphatase reporter). In outline: as §1

Where [1] appears, read: HEK-Blue cells overexpressing human TLR9, stimulated with ODN2006 5 nM, read-out: TLR 9 IC50.

Each structure is given as a SMILES string. Like-named read-outs stand apart in the source and are kept apart here. Some results are limits rather than exact numbers.

As for `Cn1c(-c2ccc(S(C)(=O)=O)cc2)nc2cc(C3CCN(C4CC5CCC(C4)N5CC4CC4)CC3)c(F)cc21` (single isomer, unassigned) [Example 250, 5-(1-(8-(cyclopropylmethyl)-8-azabicyclo[3.2.1]octan-3-yl)piperidin-4-yl)-6-fluoro-1-methyl-2-(4-(methylsulfonyl)phenyl)-1H-benzo[d]imidazole], the half-inhibitory concentration (IC50) at human TLR8 is over 50000 nM; on human TLR7, 36700 nM; against human TLR9 it was 110 nM; at human TLR9 (setting [1]), 110 nM.
For the compound `Cn1c(-c2ccc(S(C)(=O)=O)cc2)nc2cc(C3CCN(C4CC5CCC(C4)N5C4COC4)CC3)c(F)cc21` (single isomer, unassigned) [Example 253, 6-fluoro-1-methyl-2-(4-(methylsulfonyl)phenyl)-5-(1-(8-(oxetan-3-yl)-8-azabicyclo[3.2.1]octan-3-yl)piperidin-4-yl)-1H-benzo[d]imidazole], the 50% inhibitory concentration (IC50) was over 50000 nM on human TLR8, over 50000 nM at human TLR7, 280 nM against human TLR9 and 278 nM at human TLR9 (setting [1]).
Take `Cn1c(-c2ccc(S(C)(=O)=O)cc2)nc2cc(C3CCN(C4CC5CCC(C4)N5C4COC4)CC3)c(F)cc21` (single isomer, unassigned) [Example 254, 6-fluoro-1-methyl-2-(4-(methylsulfonyl)phenyl)-5-(1-(8-(oxetan-3-yl)-8-azabicyclo[3.2.1]octan-3-yl)piperidin-4-yl)-1H-benzo[d]imidazole]: the half-inhibitory concentration (IC50) is over 50000 nM at human TLR8, over 50000 nM on human TLR7, 5300 nM against human TLR9 and 5310 nM at human TLR9 (setting [1]).
`Cn1c(-c2ccc(S(C)(=O)=O)cc2)nc2cc(C3CCN(C4CC5CCC(C4)N5C4CCOCC4)CC3)c(F)cc21` (single isomer, unassigned) [Example 255, 6-fluoro-1-methyl-2-(4-(methylsulfonyl)phenyl)-5-(1-(8-(tetrahydro-2H-pyran-4-yl)-8-azabicyclo[3.2.1]octan-3-yl)piperidin-4-yl)-1H-benzo[d]imidazole]: the IC50 at human TLR8 is over 50000 nM; at human TLR7, over 50000 nM; at human TLR9, 72 nM; on human TLR9 (setting [1]), 72 nM.
As for `Cn1c(-c2ccc(S(C)(=O)=O)cc2)nc2cc(C3CCN(C4CC5CCC(C4)N5C4CCOCC4)CC3)c(F)cc21` (single isomer, unassigned) [Example 256, 6-fluoro-1-methyl-2-(4-(methylsulfonyl)phenyl)-5-(1-(8-(tetrahydro-2H-pyran-4-yl)-8-azabicyclo[3.2.1]octan-3-yl)piperidin-4-yl)-1H-benzo[d]imidazole], the IC50 was over 50000 nM at human TLR8, 17600 nM on human TLR7, 320 nM against human TLR9 and 315 nM on human TLR9 (setting [1]).
For `CC(C)CN1C2CCC1CC(N1CCC(c3ccc4nc(-c5ccc(S(C)(=O)=O)cc5)n(C)c4c3F)CC1)C2` (single isomer, unassigned) [Example 266, 7-fluoro-6-(1-(8-isobutyl-8-azabicyclo[3.2.1]octan-3-yl)piperidin-4-yl)-1-methyl-2-(4-(methylsulfonyl)phenyl)-1H-benzo[d]imidazole] the same measures were over 50000 nM, 18600 nM, 97 nM and 97 nM.
The matching figures for `CC(C)CN1C2CCC1CC(N1CCC(c3ccc4nc(-c5ccc(S(C)(=O)=O)cc5)n(C)c4c3F)CC1)C2` (single isomer, unassigned) [Example 267, 7-fluoro-6-(1-(8-isobutyl-8-azabicyclo[3.2.1]octan-3-yl)piperidin-4-yl)-1-methyl-2-(4-(methylsulfonyl)phenyl)-1H-benzo[d]imidazole]: over 50000 nM, over 50000 nM, 350 nM and 347 nM.

Source of the values: US12492188B2, “1H-benzo[D]imidazole derivatives as TLR9 inhibitors for the treatment of fibrosis” (BRISTOL-MYERS SQUIBB COMPANY, priority 2020, dated 2025).
